IC50 data for 2 compounds are collected here from patent EP0475411B1, “Novel carbocyclic adenosine analogs useful as immunosuppressants” (Aventis Pharmaceuticals Inc., priority 1990, dated 1992).

In test [1] the test system is Rat peritoneal macrophages. Kind of test: Inhibition of priming of rat peritoneal macrophages (opsonized zymosan + rrIFN-γ), Superoxide Anion (O2-) assay. The test is classed as cell-based. Particulars: opsonized zymosan 3 mg/mL, rrIFN-γ 1000 Units/mL; compound 0 to 1000 µM; superoxide anion readout; read-out: IC50 (inhibits the priming of rat macrophages in vitro). The protocol: Rat peritoneal macrophages were isolated and grown in cell culture essentially as described by Edwards et al. [Science 239, 769 (1988)]. Macrophages were incubated along with opsonized zymosan (3 mg/mL), which acts as a particulate stimulus, and recombinant rat γ-interferon (rrIFN-y)(1000Units/mL), which acts as an activating lymphokine, in the presence of various concentrations of (1S,3R)-Cis-l(9-adenyl)-3-hydroxycyclopentane (0 to 1000µM). The degree of macrophage priming was measured using the Superoxide Anion (O2-) assay as described by Edwards et al. [Science 239, 769 (1988)].

Test [2] has as its system rat PMNs. Briefly: Inhibition of priming of rat PMN (PMA + rrIFN-γ or rHuIL-1), Superoxide Anion (O2-) assay. The test is classed as cell-based. Conditions: PMA 200 ηg/mL, compound 0 to 1000 µM, superoxide anion readout. The method, then:
The rat air pouch model of inflammation was used to obtain rat PMNs using 25ηg/pouch of recombinant human interleukin-1 (rHuIL-1) to elicit the cells essentially according to the method of Esser et al. [Internat. J. Tissue Reactions XI, 291 (1989)]. PMNs were incubated along with phorbol myristate acetate (PMA)(200ηg/mL), which acts as a soluble stimulus, and rrIFN-γ (1000 Units/mL), which acts as a stimulatory lymphokine, or rHuIL-1 (500 Units/mL), which acts as a stimulatory cytokine, in the presence of various concentrations of (1S,3R)-Cis-1(9-adenyl)-3-hydroxycyclopentane (0 to 1000 µM). The degree of macrophage priming was measured using the Superoxide Anion (O2-) assay as described by Edwards et al. [Science 239, 769 (1988)].

Counter-ions that a name gives are not always drawn. Like-named read-outs stand apart in the source and are kept apart here.

Take “(1S,3R)-Cis-l(9-adenyl)-3-hydroxy-4-cyclopentene”: the IC50 (as a rule, the concentration that inhibits the measured activity by half) in test [1] came out at 2500 nM.

`Nc1ncnc2c1ncn2[C@H]1CC[C@@H](O)C1` [(1S,3R)-Cis-1-(9-adenyl)-3-hydroxycyclopentane hydrochloride]: the IC50 in test [2] (rHuIL-1 500 Units/mL, read-out: IC50 (inhibits the rHuIL-1 priming of rat PMN in vitro)) worked out at 1 nM; in test [2] (rrIFN-γ 1000 Units/mL, read-out: IC50 (inhibits the rrIFN-γ priming of rat PMN in vitro)), 1 nM.
